Key:
BSA [1] = target: T1, BSA (Bos taurus, UniProt P02769); assay: Reduction of aggregation of BSA induced by t-butanol, SEC HPLC; format: physicochemical, Bovine; settings: BSA precipitated with t-butanol, re-dissolved in PBS
T1 construct: BSA stock solution (35%, in water, 0.85% sodium chloride, from Sigma); purchased Sigma / Sigma Aldrich
Method: To three separate test tubes containing 0.050 ml of BSA (35%, 0.85% sodium chloride) and 0.050 ml of phosphate buffer (50 mM, pH 7.4), were respectively added 0.010 ml of water, 0.010 mll of 2-formylbenzenesulfonic acid sodium salt (75 mg/ml, pH 8), and 0.010 ml of pyridoxal phosphate (100 mg/ml, pH 7.4). To each of the three tubes were then added 0.50 ml of PEG solution (75%, molecular weight 3400) followed by centrifugation to give some precipitate. The three supernatants were collected to have BSA at saturated concentrations, and to them were separately added 0.50 ml of t-butanol to have more BSA precipitates after centrifugation. The crops of precipitates from t-butanol were washed with t-butanol twice (0.75 ml each) and re-dissolved in PBS buffer (50 mM sodium phosphate, pH 7.4, 0.85% sodium chloride) for SEC HPLC analysis. Plain BSA produced about 75% of aggregates, the sample with 2-formylbenzenesulfonic acid produced about 60% of aggregates, the sample with pyridoxal phosphate produced less than 50% of aggregates.

zinc-free bovine insulin = target: T2, zinc-free bovine insulin (Bos taurus, UniProt P01317); assay: Inhibition of insulin fibrillation by pyridoxal phosphate, rotator at 39° C.; format: physicochemical
T2 construct: A solution of zinc-free bovine insulin was prepared in phosphate buffer
T2 sequence (P01317 25-54 limits assumed): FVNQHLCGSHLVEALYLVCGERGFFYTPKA
T2 sequence (P01317 85-105 limits assumed): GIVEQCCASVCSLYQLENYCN
Method: A solution of zinc-free bovine insulin was prepared in phosphate buffer (50 mM, pH 7.4, no sodium chloride) at concentration of 1.2 mg/ml. Two aliquots of 2.0 ml each were transferred into two separate glass tubes (sanitized in boiling water), and 0.10 ml of water was added to one tube, and 0.10 ml of pyridoxal phosphate (100 mg/ml, in water, pH 7.4) was added to the other. Both tubes were capped and put on a rotator (12 rotations per minute) in an oven at temperature of 39° C.
A solution of zinc-free bovine insulin was prepared in phosphate buffer (50 mM, pH 7.0, no sodium chloride) at concentration of 1.2 mg/ml. Two aliquots of 2.0 ml each were transferred into two separate glass tubes (sanitized in boiling water), and 0.10 ml of water was added to each tube. To 4.0 ml of the insulin solution was added 0.20 ml of pyridoxal phosphate (100 mg/ml, in water, pH 7.4) and the pH was adjusted to 7.0, and divided into two separate glass tubes (sanitized in boiling water). All the four tubes were capped and put on a rotator (12 rotations per minute) in an oven at temperature of 39° C.
A solution of zinc-free bovine insulin (50 mg) was dissolved in 0.50 ml of 0.1 N hydrochloric acid, and neutralized using 0.1 N sodium hydroxide until it turned cloudy and clear again. Then 0.667 ml of pyridoxal phosphate solution (167 mg/ml, pH 7.0 in water) was added to the insulin solution, and the pH was re-adjusted to 7.4 using dilute sodium hydroxide. The total volume was adjusted to 2.5 ml with HPLC grade water. Serial dilution using water provided four samples (1.0 ml each) of insulin concentrations at 2.0, 5.0, 10, 15 mg/ml. All the four samples in glass vials, together with 0.5 ml of the remaining insulin-pyridoxal phosphate solution (20 mg/ml) were capped and put on a rotator (12 rotations per minute) in an oven at temperature of 39° C.

BSA [2] = target: T1, BSA; assay: Reduction of aggregation of BSA induced by methanol, SEC HPLC; format: physicochemical, Bovine; settings: precipitated with PEG 3400 and methanol, re-dissolved in PBS
Method: BSA stock solution (0.050 ml, 35%, 0.85% sodium chloride, Sigma) was diluted with 0.050 ml of sodium phosphate buffer (50 mM, pH 7.4, no sodium chloride) and 0.050 ml of water (HPLC grade). A separate sample was prepared in the same way, but replacing the 0.050 ml of water using 0.050 ml of an excipient solution containing pyridoxal phosphate (represented as X2 in FIG. 1, 100 mg/ml in water, pH 7.4). To each of the two samples in test tubes were added 0.350 ml of an aqueous solution of polyethylene glycol (molecular weight 3400, 75%) to turn the mixtures cloudy, followed by addition of 0.50 ml of methanol (HPLC grade). Then the samples were centrifuged to collect the precipitates. The precipitates were re-dissolved in PBS buffer and analyzed on Size Exclusion Chromatography HPLC. Without excipient, about two thirds of BSA was found in the form of aggregates, while only a quarter of BSA appeared as aggregate in the samples using excipient pyridoxal phosphate.

T1 sequence (P02769 25-607): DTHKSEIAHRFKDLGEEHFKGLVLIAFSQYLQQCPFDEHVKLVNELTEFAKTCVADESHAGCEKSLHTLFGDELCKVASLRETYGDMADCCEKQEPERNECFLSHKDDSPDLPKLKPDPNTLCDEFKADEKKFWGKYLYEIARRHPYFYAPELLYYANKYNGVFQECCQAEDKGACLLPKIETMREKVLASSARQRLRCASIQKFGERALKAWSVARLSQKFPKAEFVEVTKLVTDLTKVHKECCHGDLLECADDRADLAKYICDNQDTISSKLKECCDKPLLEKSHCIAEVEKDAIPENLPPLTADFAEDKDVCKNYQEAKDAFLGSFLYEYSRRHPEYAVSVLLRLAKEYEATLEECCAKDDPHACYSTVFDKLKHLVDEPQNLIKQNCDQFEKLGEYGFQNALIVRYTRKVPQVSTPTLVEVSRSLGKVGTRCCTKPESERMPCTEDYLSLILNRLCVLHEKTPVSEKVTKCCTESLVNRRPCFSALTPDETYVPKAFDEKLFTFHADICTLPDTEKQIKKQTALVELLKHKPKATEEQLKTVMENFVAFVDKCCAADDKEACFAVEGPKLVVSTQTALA

- Aggregates produced (BSA [1]): less than 50%
- Appearance of insulin solution (fibrillation) (zinc-free bovine insulin; pH 7.0, insulin 1.2 mg/ml, 0.20 ml pyridoxal phosphate 100 mg/ml in 4.0 ml): still remained clear beyond four weeks
- Appearance of insulin solution (fibrillation) (zinc-free bovine insulin; pH 7.4, insulin 1.2 mg/ml, 0.10 ml pyridoxal phosphate 100 mg/ml in 2.0 ml): still remained clear after five weeks
- Appearance of insulin solution (fibrillation) (zinc-free bovine insulin; pH 7.4, insulin 2.0, 5.0, 10, 15 and 20 mg/ml with pyridoxal phosphate serially diluted): still remained clear after three weeks
- Fraction of BSA appearing as aggregate (BSA [2]): a quarter
Structure (SMILES): Cc1ncc(COP(=O)(O)O)c(C=O)c1O [pyridoxal phosphate]

Source: US8642532B2, “Excipients for protein stabilization” (priority 2007, dated 2014)
